Measurements reported in patent US5698522A, “6-position modified decapeptide LHRH antagonists” (Abbott Laboratories, priority 1995, dated 1997).
Where a SMILES comes first, the peptide text is derived from it. Side-chain parts run from the residue outwards. [ ]: non-standard residue; d: D form. The star is where a group is joined. NMePhe(4-NH(5-NH2-Trz-3-yl)) = CN[C@@H](Cc1ccc(Nc2n[nH]c(N)n2)cc1)C(=O)O; Shikimoyl = O=C(C1=C[C@@H](O)[C@@H](O)[C@H](O)C1)*; dPhe(4-Cl) = N[C@H](Cc1ccc(Cl)cc1)C(=O)O; d2Nal = N[C@H](Cc1ccc2ccccc2c1)C(=O)O; Lys(iPr) = CC(C)NCCCC[C@H](N)C(=O)O; NMeY = CN[C@@H](Cc1ccc(O)cc1)C(=O)O; d3Pal = N[C@H](Cc1cccnc1)C(=O)O; Nicotinoyl = O=C(c1cccnc1)*; dOrn = NCCC[C@@H](N)C(=O)O; 2Furoyl = O=C(c1ccco1)*; Propionyl = CCC(=O)*; Ahx = NCCCCCC(=O)O; azaGly = NNC(=O)O

Target: T1, LHRH receptor (Rattus norvegicus, UniProt P30969)
T1 construct: endogenous in cells
T1 sequence (P30969 1-327): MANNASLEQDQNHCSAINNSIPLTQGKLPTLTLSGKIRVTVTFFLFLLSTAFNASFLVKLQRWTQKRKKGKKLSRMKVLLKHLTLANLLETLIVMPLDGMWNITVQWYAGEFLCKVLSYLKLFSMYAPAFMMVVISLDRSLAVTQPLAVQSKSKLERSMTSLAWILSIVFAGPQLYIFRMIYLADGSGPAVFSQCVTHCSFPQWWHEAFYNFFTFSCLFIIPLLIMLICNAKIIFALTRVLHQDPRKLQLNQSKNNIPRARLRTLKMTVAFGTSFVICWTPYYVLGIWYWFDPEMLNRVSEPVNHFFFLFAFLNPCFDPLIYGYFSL
Test: in vitro LHRH antagonist potency (pA2) against the agonist leuprolide
Type: cell-based
Conditions: negative logarithm of the antagonist concentration which shifts the response curve produced by the agonist leuprolide to two-fold higher concentration
How it was run: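 Functional antagonism against the agonist leuprolide. pA2 is the negative log of antagonist concentration that shifts the leuprolide response curve to twofold higher concentration.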

SMILES	Kb [nM]
CC(=O)N[C@H](Cc1ccc2ccccc2c1)C(=O)N[C@H](Cc1ccc(Cl)cc1)C(=O)N[C@H](Cc1cccnc1)C(=O)N[C@@H](CO)C(=O)N(C)[C@@H](Cc1ccc(O)cc1)C(=O)N[C@H](CCCCNC(=O)[C@@H](C)NC(=O)C1=C[C@@H](O)[C@@H](O)[C@H](O)C1)C(=O)N[C@@H](CC(C)C)C(=O)N[C@@H](CCCNC(=N)N)C(=O)N1CCC[C@H]1C(=O)N[C@H](C)C(N)=O [Example 48d, NAc-D2Nal^1 -D4ClPhe^2 -D3Pal^3 -Ser^4 -NMeTyr^5 -DLys(N-epsilon-D-Ala-Shikimyl)^6 -Leu^7 -Arg^8 -Pro^9 -DAla^10 NH2] (Ac-[d2Nal][dPhe(4-Cl)][d3Pal]S[NMeY][dK]([dA-Shikimoyl])LRP[dA]-NH2)	0.0126
CC(=O)N[C@H](Cc1ccc2ccccc2c1)C(=O)N[C@H](Cc1ccc(Cl)cc1)C(=O)N[C@H](Cc1cccnc1)C(=O)N[C@@H](CO)C(=O)N(C)[C@@H](Cc1ccc(O)cc1)C(=O)N[C@H](CCCCNC(=O)[C@@H](Cc1c[nH]cn1)NC(=O)C1=C[C@@H](O)[C@@H](O)[C@H](O)C1)C(=O)N[C@@H](CC(C)C)C(=O)N[C@@H](CCCNC(=N)N)C(=O)N1CCC[C@H]1C(=O)N[C@H](C)C(N)=O [Example 48h, NAc-D2Nal^1 -D4ClPhe^2 -D3Pal^3 -Ser^4 -NMeTyr^5 -DLys(N-epsilon-D-His-Shikimyl)^6 -Leu^7 -Arg^8 -Pro^9 -DAla^10 NH2] (Ac-[d2Nal][dPhe(4-Cl)][d3Pal]S[NMeY][dK]([dH-Shikimoyl])LRP[dA]-NH2)	0.038
CC(=O)N[C@H](CO)C(=O)NCCCC[C@@H](NC(=O)[C@H](Cc1ccc(O)cc1)N(C)C(=O)[C@H](CO)NC(=O)[C@@H](Cc1cccnc1)NC(=O)[C@@H](Cc1ccc(Cl)cc1)NC(=O)[C@@H](Cc1ccc2ccccc2c1)NC(C)=O)C(=O)N[C@@H](CC(C)C)C(=O)N[C@@H](CCCNC(=N)N)C(=O)N1CCC[C@H]1C(=O)N[C@H](C)C(N)=O [Example 8, NAc-D2Nal^1 -D4ClPhe^2 -D3Pal^3 -Ser^4 -NMeTyr^5 -DLys(N-epsilon-DSer-Acetyl)^6 -Leu^7 -Arg^8 -Pro^9 -DAla^10 NH2] (Ac-[d2Nal][dPhe(4-Cl)][d3Pal]S[NMeY][dK]([dS-Ac])LRP[dA]-NH2)	0.00794
CC(=O)N[C@@H](CO)C(=O)NCCCC[C@@H](NC(=O)[C@H](Cc1ccc(O)cc1)N(C)C(=O)[C@H](CO)NC(=O)[C@@H](Cc1cccnc1)NC(=O)[C@@H](Cc1ccc(Cl)cc1)NC(=O)[C@@H](Cc1ccc2ccccc2c1)NC(C)=O)C(=O)N[C@@H](CC(C)C)C(=O)N[C@@H](CCCNC(=N)N)C(=O)N1CCC[C@H]1C(=O)N[C@H](C)C(N)=O [Example 9, NAc-D2Nal^1 -D4ClPhe^2 -D3Pal^3 -Ser^4 -NMeTyr^5 -DLys(N-epsilon-Ser-Acetyl)^6 -Leu^7 -Arg^8 -Pro^9 -DAla^10 NH2] (Ac-[d2Nal][dPhe(4-Cl)][d3Pal]S[NMeY][dK]([Ser-Ac])LRP[dA]-NH2)	0.00891
CC(=O)N[C@H](Cc1ccc2ccccc2c1)C(=O)N[C@H](Cc1ccc(Cl)cc1)C(=O)N[C@H](Cc1cccnc1)C(=O)N[C@@H](CO)C(=O)N(C)[C@@H](Cc1ccc(Nc2n[nH]c(N)n2)cc1)C(=O)N[C@H](CCCCNC(=O)NNC(=O)c1cccnc1)C(=O)N[C@@H](CC(C)C)C(=O)N[C@@H](CCCCNC(C)C)C(=O)N1CCC[C@H]1C(=O)N[C@H](C)C(N)=O [Example 46, NAc-D2Nal^1 -D4ClPhe^2 -D3Pal^3 -Ser^4 -NMePhe(Atz)^5 -DLys(N-epsilon-Azagly-Nicotinyl)^6 -Leu^7 -Lys(N-epsilon-Isopropyl)^8 -Pro^9 -DAla^10 NH2] (Ac-[d2Nal][dPhe(4-Cl)][d3Pal]S[NMePhe(4-NH(5-NH2-Trz-3-yl))][dK]([azaGly-Nicotinoyl])L[Lys(iPr)]P[dA]-NH2)	0.011
CC(=O)N[C@H](Cc1ccc2ccccc2c1)C(=O)N[C@H](Cc1ccc(Cl)cc1)C(=O)N[C@H](Cc1cccnc1)C(=O)N[C@@H](CO)C(=O)N(C)[C@@H](Cc1ccc(O)cc1)C(=O)N[C@H](CCCCNC(=O)CNC(=O)c1ccco1)C(=O)N[C@@H](CC(C)C)C(=O)N[C@@H](CCCCNC(C)C)C(=O)N1CCC[C@H]1C(=O)N[C@H](C)C(N)=O [Example 6a, NAc-D2Nal^1 -D4ClPhe^2 -D3Pal^3 -Ser^4 -NMeTyr^5 -DLys(N-epsilon-Gly-2-Furoyl)^6 -Leu^7 -Lys(N-epsilon-Isopropyl)^8 -Pro^9 -DAla^10 NH2] (Ac-[d2Nal][dPhe(4-Cl)][d3Pal]S[NMeY][dK]([Gly-2Furoyl])L[Lys(iPr)]P[dA]-NH2)	0.0158
CCC(=O)NNC(=O)NCCCC[C@@H](NC(=O)[C@H](Cc1ccc(O)cc1)N(C)C(=O)[C@H](CO)NC(=O)[C@@H](Cc1cccnc1)NC(=O)[C@@H](Cc1ccc(Cl)cc1)NC(=O)[C@@H](Cc1ccc2ccccc2c1)NC(C)=O)C(=O)N[C@@H](CC(C)C)C(=O)N[C@@H](CCCCNC(C)C)C(=O)N1CCC[C@H]1C(=O)N[C@H](C)C(N)=O [Example 58, NAc-D2Nal^1 -D4ClPhe^2 -D3Pal^3 -Ser^4 -NMeTyr^5 -DLys(N-epsilon-Azagly-Propionyl)^6 -Leu^7 -Lys(N-epsilon-Isopropyl)^8 -Pro^9 -DAla^10 NH2] (Ac-[d2Nal][dPhe(4-Cl)][d3Pal]S[NMeY][dK]([azaGly-Propionyl])L[Lys(iPr)]P[dA]-NH2)	0.0257
CC(=O)N[C@H](Cc1ccc2ccccc2c1)C(=O)N[C@H](Cc1ccc(Cl)cc1)C(=O)N[C@H](Cc1cccnc1)C(=O)N[C@@H](CO)C(=O)N(C)[C@@H](Cc1ccc(O)cc1)C(=O)N[C@H](CCCCNC(=O)CCCCCNC(=O)c1cccnc1)C(=O)N[C@@H](CC(C)C)C(=O)N[C@@H](CCCCNC(C)C)C(=O)N1CCC[C@H]1C(=O)N[C@H](C)C(N)=O [Example 4e, NAc-D2Nal^1 -D4ClPhe^2 -D3Pal^3 -Ser^4 -NMeTyr^5 -DLys[N-epsilon-(N-epsilon-aminocaproyl)-Nicotinyl]^6 -Leu^7 -Lys(N-epsilon-Isopropyl)^8 -Pro^9 -DAla^10 NH2] (Ac-[d2Nal][dPhe(4-Cl)][d3Pal]S[NMeY][dK]([Ahx-Nicotinoyl])L[Lys(iPr)]P[dA]-NH2)	0.0339
CC(=O)N[C@H](Cc1ccc2ccccc2c1)C(=O)N[C@H](Cc1ccc(Cl)cc1)C(=O)N[C@H](Cc1cccnc1)C(=O)N[C@@H](CO)C(=O)N(C)[C@@H](Cc1ccc(O)cc1)C(=O)N[C@H](CCCCNC(=O)[C@@H](CO)NC(=O)CNC(=O)c1cccnc1)C(=O)N[C@@H](CC(C)C)C(=O)N[C@@H](CCCNC(=N)N)C(=O)N1CCC[C@H]1C(=O)N[C@H](C)C(N)=O [Example 48k, NAc-D2Nal^1 -D4ClPhe^2 -D3Pal^3 -Ser^4 -NMeTyr^5 -DLys(N-epsilon-D-Ser-Gly-Nicotinyl)^6 -Leu^7 -Arg^8 -Pro^9 -DAla^10 NH2] (Ac-[d2Nal][dPhe(4-Cl)][d3Pal]S[NMeY][dK]([dS-Gly-Nicotinoyl])LRP[dA]-NH2)	0.017
CC(=O)N[C@H](Cc1ccc2ccccc2c1)C(=O)N[C@H](Cc1ccc(Cl)cc1)C(=O)N[C@H](Cc1cccnc1)C(=O)N[C@@H](CO)C(=O)N(C)[C@@H](Cc1ccc(O)cc1)C(=O)N[C@H](CCCCNC(=O)CNC(=O)c1cccnc1)C(=O)N[C@@H](CC(C)C)C(=O)N[C@@H](CCCNC(=N)N)C(=O)N1CCC[C@H]1C(=O)N[C@H](C)C(N)=O [Example 10, NAc-D2Nal^1 -D4ClPhe^2 -D3Pal^3 -Ser^4 -NMeTyr^5 -DLys(N-epsilon-Gly-Nicotinyl)^6 -Leu^7 -Arg^8 -Pro^9 -DAla^10 NH2] (Ac-[d2Nal][dPhe(4-Cl)][d3Pal]S[NMeY][dK]([Gly-Nicotinoyl])LRP[dA]-NH2)	0.00501
CC(=O)N[C@H](Cc1ccc2ccccc2c1)C(=O)N[C@H](Cc1ccc(Cl)cc1)C(=O)N[C@H](Cc1cccnc1)C(=O)N[C@@H](CO)C(=O)N(C)[C@@H](Cc1ccc(O)cc1)C(=O)N[C@H](CCCCNC(=O)CNC(=O)c1cccnc1)C(=O)N[C@@H](CC(C)C)C(=O)N[C@@H](CCCCNC(C)C)C(=O)N1CCC[C@H]1C(=O)N[C@H](C)C(N)=O [Example 1, NAc-D2Nal^1 -D4ClPhe^2 -D3Pal^3 -Ser^4 -NMeTyr^5 -DLys(N-epsilon-Gly-Nicotinyl)^6 -Leu^7 -Lys(N-epsilon-Isopropyl)^8 -Pro^9 -DAla^10 NH2] (Ac-[d2Nal][dPhe(4-Cl)][d3Pal]S[NMeY][dK]([Gly-Nicotinoyl])L[Lys(iPr)]P[dA]-NH2)	0.00355
CC(=O)N[C@H](Cc1ccc2ccccc2c1)C(=O)N[C@H](Cc1ccc(Cl)cc1)C(=O)N[C@H](Cc1cccnc1)C(=O)N[C@@H](CO)C(=O)N(C)[C@@H](Cc1ccc(O)cc1)C(=O)N[C@H](CCCNC(=O)NNC(=O)c1cccnc1)C(=O)N[C@@H](CC(C)C)C(=O)N[C@@H](CCCCNC(C)C)C(=O)N1CCC[C@H]1C(=O)N[C@H](C)C(N)=O [Example 53a, NAc-D2Nal^1 -D4ClPhe^2 -D3Pal^3 -Ser^4 -NMeTyr^5 -DOrn(N-epsilon-Azagly-Nicotinyl)^6 -Leu^7 -Lys(N-epsilon-Isopropyl)^8 -Pro^9 -DAla^10 NH2] (Ac-[d2Nal][dPhe(4-Cl)][d3Pal]S[NMeY][dOrn]([azaGly-Nicotinoyl])L[Lys(iPr)]P[dA]-NH2)	0.0331
CC(=O)N[C@H](Cc1ccc2ccccc2c1)C(=O)N[C@H](Cc1ccc(Cl)cc1)C(=O)N[C@H](Cc1cccnc1)C(=O)N[C@@H](CO)C(=O)N(C)[C@@H](Cc1ccc(O)cc1)C(=O)N[C@H](CCCNC(=O)CNC(=O)c1cccnc1)C(=O)N[C@@H](CC(C)C)C(=O)N[C@@H](CCCNC(=N)N)C(=O)N1CCC[C@H]1C(=O)N[C@H](C)C(N)=O [Example 49a, NAc-D2Nal^1 -D4ClPhe^2 -D3Pal^3 -Ser^4 -NMeTyr^5 -DOrn(N-epsilon-Gly-Nicotinyl)^6 -Leu^7 -Arg^8 -Pro^9 -DAla^10 NH2] (Ac-[d2Nal][dPhe(4-Cl)][d3Pal]S[NMeY][dOrn]([Gly-Nicotinoyl])LRP[dA]-NH2)	0.0155
